Measured values: patent US20260263624A1, “COMBINATION OF ANTIBODY-DRUG CONJUGATE AND CANCER THERAPY, AND USE THEREOF” (GENEQUANTUM HEALTHCARE (SUZHOU) CO., LTD., priority 2023, published 2026)

Legend:
[1] = test system: BT-474 cells (breast cancer HER2-high CDX model); test: In vivo efficacy of GQ01 with chemotherapies in human breast cancer CDX model, BT-474 (Example 5); set-up: species or system BALB/c nude mice; settings: GQ01 5 mg/kg single dose; for TGI (%): day 25; for Tumor volume (mm^3), Mean ± SEM: end day (day 25)
Protocol: I. Breast cancer tumor cells were passaged in vivo from BT-474 cells (ATCC, Lot #HTB-20). The cells in exponential growth stage were collected and counted for tumor inoculation. 0.2 mL of matrix gel buffer (PBS: Matrigel=1:1) was used to subcutaneously inject 2×10^6 cells into the right flank of SPF female BALB/c nude mice aged 6-8 weeks. Four days before cell inoculation, BALB/c nude mice had been subcutaneously inoculated with estrogen tablet.
(§1) II. 10 days after inoculation, the tumor diameter was measured with a caliper and the tumor volume was calculated according to the formula V=0.5 a×b2 (wherein a is the long diameter of the tumor and b is the short diameter of the tumor). […] Each group included 6 mice. The day of first administration was defined as day 0. […] The tumor volume of mice in each group was measured twice a week.

[2] = test system: HCC1954 cells (breast cancer HER2-high CDX model); test: In vivo efficacy of GQ01 with chemotherapies in human breast cancer CDX model, HCC1954 (Example 6); set-up: species or system BALB/c nude mice; settings: for Tumor volume (mm^3), Mean ± SEM: end day (day 32)
Protocol: I. HCC1954 cells in exponential growth stage were collected and counted for tumor inoculation. 0.2 mL of matrix gel buffer (PBS: Matrigel=1:1) was used to subcutaneously inject 1×10^6 cells into the right flank of SPF female BALB/c nude mice aged 6-8 weeks.
as §1, with “9” for “10”

[3] = paclitaxel 10 mg/kg BIW 4 weeks, combination 5 + 10 mg/kg
[4] = paclitaxel 10 mg/kg BIW 4 weeks, combination 5 + 10 mg/kg, listed as paclitaxel
[5] = capecitabine 300 mg/kg QD 2 weeks, combination 5 + 300 mg/kg
[6] = capecitabine 300 mg/kg QD 2 weeks, combination 5 + 300 mg/kg, listed as capecitabine

Compound	TGI (%) [1, 3] [%]	TGI (%) [1, 4] [%]	Tumor volume (mm^3), Mean ± SEM [1, 3] [mm^3]	Tumor volume (mm^3), Mean ± SEM [1, 4] [mm^3]	TGI (%) ([2]; day 32, GQ01 2 mg/kg single dose, paclitaxel 10 mg/kg BIW 4 doses, combination 2 + 10 mg/kg, trastuzumab 5 + pertuzumab 5 (single dose) + paclitaxel 10 mg/kg)	TGI (%) ([2]; day 32, GQ01 2 mg/kg single dose, paclitaxel 10 mg/kg BIW 4 doses, combination 2 + 10 mg/kg, trastuzumab 5 + pertuzumab 5 (single dose) + paclitaxel 10 mg/kg, listed as paclitaxel)	Tumor volume (mm^3), Mean ± SEM ([2]; GQ01 2 mg/kg single dose, paclitaxel 10 mg/kg BIW 4 doses, combination 2 + 10 mg/kg, trastuzumab 5 + pertuzumab 5 (single dose) + paclitaxel 10 mg/kg)	Tumor volume (mm^3), Mean ± SEM ([2]; GQ01 2 mg/kg single dose, paclitaxel 10 mg/kg BIW 4 doses, combination 2 + 10 mg/kg, trastuzumab 5 + pertuzumab 5 (single dose) + paclitaxel 10 mg/kg, listed as paclitaxel) [mm^3]	TGI (%) [1, 5] [%]	TGI (%) [1, 6] [%]	Tumor volume (mm^3), Mean ± SEM [1, 5] [mm^3]	Tumor volume (mm^3), Mean ± SEM [1, 6] [mm^3]	Tumor volume (mm^3), Mean ± SEM ([2]; table prints GQ01 5 mg/kg and 5 + 300 mg/kg, text GQ01 2 mg/kg single dose, capecitabine 300 mg/kg QD 2 weeks)	Tumor volume (mm^3), Mean ± SEM ([2]; table prints GQ01 5 mg/kg and 5 + 300 mg/kg, text GQ01 2 mg/kg single dose, capecitabine 300 mg/kg QD 2 weeks, listed as capecitabine) [mm^3]	TGI (%) ([2]; text: day 32, footnote: day 25, table prints GQ01 5 mg/kg and 5 + 300 mg/kg, text GQ01 2 mg/kg single dose, capecitabine 300 mg/kg QD 2 weeks)	TGI (%) ([2]; text: day 32, footnote: day 25, table prints GQ01 5 mg/kg and 5 + 300 mg/kg, text GQ01 2 mg/kg single dose, capecitabine 300 mg/kg QD 2 weeks, listed as capecitabine)
CC(=O)O[C@H]1C(=O)[C@@]2(C)[C@H]([C@H](OC(=O)c3ccccc3)[C@]3(O)C[C@H](OC(=O)[C@H](O)[C@@H](NC(=O)c4ccccc4)c4ccccc4)C(C)=C1C3(C)C)[C@]1(OC(C)=O)CO[C@@H]1C[C@@H]2O [Paclitaxel, paclitaxel]	58.54	58.54	520 ± 87	520	26.60	26.60	1,219 ± 124 mm^3	1219								
CCCCCOC(=O)Nc1nc(=O)n([C@@H]2O[C@H](C)[C@@H](O)[C@H]2O)cc1F [Capecitabine, capecitabine]									21.01	21.01	858 ± 280	858	1,183 ± 222 mm^3	1183	29.05	29.05
